# Assay results reported in ChEMBL document CHEMBL1201862, “PubChem BioAssay data set” (2004).
#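 Briefly, cells in 96-well plates were exposed to five compound concentrations for 48 h, and endpoints were estimated by linear interpolation. GI50 marks 50% less growth.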 Calls of active or inactive are those of the source. Rule as the data show it: active = GI50 up to about 1.1 µM and inactive = higher.
# What was measured:
# Assay in all cases: growth of human tumour cells (NCI), 48 h
# DU-145 = tested on: DU-145
# IGROV-1 = tested on: IGROV-1
# SK-MEL-5 = tested on: SK-MEL-5
# 786-0 = tested on: 786-0
# KM12 = tested on: KM12
# K562 = tested on: K562
# MOLT-4 = tested on: MOLT-4
# A498 = tested on: A498
# LOX IMVI = tested on: LOX IMVI
# Hs-578T = tested on: Hs-578T
# HCT-116 = tested on: HCT-116
# UACC-257 = tested on: UACC-257
# NCI-H460 = tested on: NCI-H460
# M14 = tested on: M14
# U-251 = tested on: U-251
# TK-10 = tested on: TK-10
# MDA-MB-435 = tested on: MDA-MB-435
# EKVX = tested on: EKVX
# SNB-75 = tested on: SNB-75
# T47D = tested on: T47D
Compound,GI50 (DU-145),GI50 (IGROV-1),GI50 (SK-MEL-5),GI50 (786-0),GI50 (KM12),GI50 (K562),GI50 (MOLT-4),GI50 (A498),GI50 (LOX IMVI),GI50 (Hs-578T),GI50 (HCT-116),GI50 (UACC-257),GI50 (NCI-H460),GI50 (M14),GI50 (U-251),GI50 (TK-10),GI50 (MDA-MB-435),GI50 (EKVX),GI50 (SNB-75),GI50 (T47D)
CCN(CC)CCC(=O)/C=C/c1ccccc1,22.5 µM (inactive),17.5 µM (inactive),18.4 µM (inactive),2.67 µM (inactive),6.5 µM (inactive),3.05 µM (inactive),6.3 µM (inactive),17.8 µM (inactive),2.54 µM (inactive),14 µM (inactive),7.87 µM (inactive),16.2 µM (inactive),12.1 µM (inactive),15.7 µM (inactive),12 µM (inactive),17.7 µM (inactive),11 µM (inactive),13.9 µM (inactive),13.2 µM (inactive),
N#CC(CCN1CCC(Nc2ccccc2)(c2nnnn2C2CCCCC2)CC1)(c1ccccc1)c1ccccc1,81.3 µM (inactive),> 100 µM (inactive),> 100 µM (inactive),> 100 µM (inactive),> 100 µM (inactive),> 100 µM (inactive),> 100 µM (inactive),> 100 µM (inactive),> 100 µM (inactive),> 100 µM (inactive),> 100 µM (inactive),> 100 µM (inactive),> 100 µM (inactive),> 100 µM (inactive),> 100 µM (inactive),> 100 µM (inactive),> 100 µM (inactive),> 100 µM (inactive),> 100 µM (inactive),
Cc1ccc2[nH]c3c(c2c1)CCC/C3=N/N=C(N)N,1.71 µM (inactive),1.62 µM (inactive),1.9 µM (inactive),2.07 µM (inactive),1.63 µM (inactive),2.08 µM (inactive),2.09 µM (inactive),7.14 µM (inactive),1.84 µM (inactive),,2.79 µM (inactive),2.51 µM (inactive),1.4 µM (inactive),1.57 µM (inactive),2.1 µM (inactive),,1.72 µM (inactive),1.92 µM (inactive),1.34 µM (inactive),
Nc1nc(N)c2cc(Sc3cccc(C(F)(F)F)c3)ccc2n1 [WR-159412],0.982 µM (active),0.708 µM (active),3.71 µM (inactive),0.624 µM (active),2.59 µM (inactive),0.0883 µM (active),0.271 µM (active),,,2.66 µM (inactive),0.237 µM (active),,0.466 µM (active),1.14 µM (inactive),0.771 µM (active),10.1 µM (inactive),0.662 µM (active),3.56 µM (inactive),3.17 µM (inactive),
Cc1cc(C)nc(Sc2c([N+](=O)[O-])ncn2C)n1,,> 100 µM (inactive),> 100 µM (inactive),> 100 µM (inactive),> 100 µM (inactive),> 100 µM (inactive),69.5 µM (inactive),> 100 µM (inactive),57.1 µM (inactive),,> 100 µM (inactive),> 100 µM (inactive),> 100 µM (inactive),> 100 µM (inactive),> 100 µM (inactive),> 100 µM (inactive),,> 100 µM (inactive),> 100 µM (inactive),
N/N=C1\CCCc2c1no[n+]2[O-],> 100 µM (inactive),> 100 µM (inactive),> 100 µM (inactive),> 100 µM (inactive),> 100 µM (inactive),> 100 µM (inactive),> 100 µM (inactive),> 100 µM (inactive),> 100 µM (inactive),> 100 µM (inactive),> 100 µM (inactive),> 100 µM (inactive),> 100 µM (inactive),> 100 µM (inactive),> 100 µM (inactive),> 100 µM (inactive),> 100 µM (inactive),> 100 µM (inactive),> 100 µM (inactive),
Cc1ccc(S(=O)(=O)C2c3nc4ccccc4cc3-c3nc4ccccc4nc32)cc1 (configuration not stated),,> 100 µM (inactive),51.8 µM (inactive),> 100 µM (inactive),> 100 µM (inactive),> 100 µM (inactive),> 100 µM (inactive),> 100 µM (inactive),> 100 µM (inactive),,> 100 µM (inactive),> 100 µM (inactive),> 10 µM (inactive),> 100 µM (inactive),> 100 µM (inactive),> 100 µM (inactive),,> 100 µM (inactive),53.8 µM (inactive),
O=C(NS(=O)(=O)c1ccccc1)C(Cc1ccccc1)C(Cc1ccccc1)C(=O)NS(=O)(=O)c1ccccc1 (configuration not stated),,> 100 µM (inactive),> 100 µM (inactive),> 100 µM (inactive),> 100 µM (inactive),> 100 µM (inactive),> 100 µM (inactive),> 100 µM (inactive),> 100 µM (inactive),,> 100 µM (inactive),> 100 µM (inactive),> 100 µM (inactive),> 100 µM (inactive),> 100 µM (inactive),> 100 µM (inactive),,> 100 µM (inactive),> 100 µM (inactive),
CSc1nc2c(c(=O)[nH]1)N=C(c1ccc(Cl)cc1)CC(c1ccccc1)N2 (configuration not stated),20.7 µM (inactive),15.5 µM (inactive),13.3 µM (inactive),15.7 µM (inactive),16.4 µM (inactive),22.2 µM (inactive),17.7 µM (inactive),30.2 µM (inactive),18.7 µM (inactive),,21.3 µM (inactive),16.2 µM (inactive),,16.3 µM (inactive),17.7 µM (inactive),,17.9 µM (inactive),18.3 µM (inactive),12.1 µM (inactive),
CN(C)CC1CCCC/C1=N/O (configuration not stated),,> 100 µM (inactive),> 100 µM (inactive),> 100 µM (inactive),> 100 µM (inactive),> 100 µM (inactive),> 100 µM (inactive),> 100 µM (inactive),> 100 µM (inactive),,> 100 µM (inactive),> 100 µM (inactive),> 100 µM (inactive),> 100 µM (inactive),> 100 µM (inactive),> 100 µM (inactive),,> 100 µM (inactive),> 100 µM (inactive),
Cn1cccc1-c1ccc(-c2ccc(CO)[se]2)[se]1,17.5 µM (inactive),0.582 µM (active),11.4 µM (inactive),14.2 µM (inactive),8.99 µM (inactive),0.986 µM (active),8.79 µM (inactive),1.77 µM (inactive),19.1 µM (inactive),22.7 µM (inactive),6.34 µM (inactive),,10.9 µM (inactive),16.1 µM (inactive),9.53 µM (inactive),28.1 µM (inactive),4.91 µM (inactive),61.1 µM (inactive),6.08 µM (inactive),
N#Cc1nnc2ccccc2c1N,> 100 µM (inactive),> 100 µM (inactive),> 100 µM (inactive),> 100 µM (inactive),> 100 µM (inactive),> 100 µM (inactive),> 100 µM (inactive),,> 100 µM (inactive),,> 100 µM (inactive),> 100 µM (inactive),> 100 µM (inactive),> 100 µM (inactive),> 100 µM (inactive),> 100 µM (inactive),> 100 µM (inactive),> 100 µM (inactive),,> 100 µM (inactive)
O=[N+]([O-])c1ccc(-c2csc(=[N+]3CCCCC3)s2)cc1,,4.48 µM (inactive),5.85 µM (inactive),34.4 µM (inactive),4.13 µM (inactive),9.71 µM (inactive),5.38 µM (inactive),2.18 µM (inactive),26.1 µM (inactive),,28.3 µM (inactive),2.08 µM (inactive),13.6 µM (inactive),36.1 µM (inactive),2.54 µM (inactive),> 83.4 µM (inactive),,18 µM (inactive),3.61 µM (inactive),
CC[C@]12C=CCN3CCC4(c5cc(/N=N/c6ccccc6)c(OC)cc5N(C)[C@H]4[C@@](O)(C(=O)OC)[C@@H]1OC(C)=O)[C@@H]32 (some centres not stated),17.6 µM (inactive),17.3 µM (inactive),19.9 µM (inactive),16.9 µM (inactive),18.7 µM (inactive),18.8 µM (inactive),13.6 µM (inactive),16.6 µM (inactive),17.3 µM (inactive),17.8 µM (inactive),16.4 µM (inactive),16.6 µM (inactive),16 µM (inactive),20.6 µM (inactive),15.9 µM (inactive),17.6 µM (inactive),18.8 µM (inactive),16.5 µM (inactive),,
O=C(Cc1nc2ccccc2c(=O)n1-c1ccccc1Cl)c1ccncc1,,> 100 µM (inactive),> 100 µM (inactive),> 100 µM (inactive),> 100 µM (inactive),> 100 µM (inactive),> 100 µM (inactive),> 100 µM (inactive),> 100 µM (inactive),,> 100 µM (inactive),> 100 µM (inactive),> 100 µM (inactive),> 100 µM (inactive),> 100 µM (inactive),> 100 µM (inactive),,> 100 µM (inactive),15 µM (inactive),
O=C(CNc1c(Cl)cccc1Cl)NC1C=Cc2ccc(S(=O)(=O)Nc3c(Cl)cccc3Cl)cc2C1=O (configuration not stated),> 100 µM (inactive),2.4 µM (inactive),,> 100 µM (inactive),35.9 µM (inactive),> 100 µM (inactive),> 100 µM (inactive),,88.7 µM (inactive),6.71 µM (inactive),> 100 µM (inactive),> 100 µM (inactive),> 100 µM (inactive),> 100 µM (inactive),> 100 µM (inactive),> 100 µM (inactive),> 100 µM (inactive),17.7 µM (inactive),16.7 µM (inactive),
